Legend:
Experiment in all cases: biochemical
Design in all cases: DiscoveRx KINOMEscan competition binding, percent of DMSO control signal at 100 nM
Settings in all cases: read-out: Fig. 4a / Percent Control / Compound 1; percent of DMSO control, competition binding
LATS1 = LATS1 (Homo sapiens, UniProt O95835)
VRK2 = VRK2 (Homo sapiens, UniProt Q86Y07)
[1] = molecular target: T1, ABL1(Q252H)-nonphosphorylated (Homo sapiens, UniProt P00519, Q252H)
T1 construct: nonphosphorylated

EPHA1 = EPHA1 (Homo sapiens, UniProt P21709)
CDK9 = CDK9 (Homo sapiens, UniProt P50750)
MAP3K1 = MAP3K1 (Homo sapiens, UniProt Q13233)
CSNK2A2 = CSNK2A2 (Homo sapiens, UniProt P19784)
EGFR = EGFR (Homo sapiens, UniProt P00533)
EIF2AK1 = EIF2AK1 (Homo sapiens, UniProt Q9BQI3)
CLK4 = CLK4 (Homo sapiens, UniProt Q9HAZ1)
CLK2 = CLK2 (Homo sapiens, UniProt P49760)
SgK110 = molecular target: T2, SgK110 (Homo sapiens, UniProt P0C264)
T2 construct: gene SBK3

PIK3CG = PIK3CG (Homo sapiens, UniProt P48736)
PKN2 = PKN2 (Homo sapiens, UniProt Q16513)
SYK = SYK (Homo sapiens, UniProt P43405)
SRC = SRC (Homo sapiens, UniProt P12931)
CAMK2B = CAMK2B (Homo sapiens, UniProt Q13554)
MARK2 = MARK2 (Homo sapiens, UniProt Q7KZI7)
AMPK-alpha1 = molecular target: T3, AMPK-alpha1 (Homo sapiens, UniProt Q13131)
T3 construct: gene PRKAA1

ZAK = molecular target: T4, ZAK (Homo sapiens, UniProt Q9NYL2)
T4 construct: gene MAP3K20

KIT(L576P) = KIT(L576P) (Homo sapiens, UniProt P10721, L576P)
RET = RET (Homo sapiens, UniProt P07949)
CSNK1A1L = CSNK1A1L (Homo sapiens, UniProt Q8N752)
ICK = molecular target: T5, ICK (Homo sapiens, UniProt Q9UPZ9)
T5 construct: gene CILK1

VPS34 = molecular target: T6, VPS34 (Homo sapiens, UniProt Q8NEB9)
T6 construct: gene PIK3C3
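Also: KINOMEscan kinase panel binding assay, signal normalized between DMSO as 100% and a positive control compound as 0%.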

T6 sequence (Q8NEB9 whole entry): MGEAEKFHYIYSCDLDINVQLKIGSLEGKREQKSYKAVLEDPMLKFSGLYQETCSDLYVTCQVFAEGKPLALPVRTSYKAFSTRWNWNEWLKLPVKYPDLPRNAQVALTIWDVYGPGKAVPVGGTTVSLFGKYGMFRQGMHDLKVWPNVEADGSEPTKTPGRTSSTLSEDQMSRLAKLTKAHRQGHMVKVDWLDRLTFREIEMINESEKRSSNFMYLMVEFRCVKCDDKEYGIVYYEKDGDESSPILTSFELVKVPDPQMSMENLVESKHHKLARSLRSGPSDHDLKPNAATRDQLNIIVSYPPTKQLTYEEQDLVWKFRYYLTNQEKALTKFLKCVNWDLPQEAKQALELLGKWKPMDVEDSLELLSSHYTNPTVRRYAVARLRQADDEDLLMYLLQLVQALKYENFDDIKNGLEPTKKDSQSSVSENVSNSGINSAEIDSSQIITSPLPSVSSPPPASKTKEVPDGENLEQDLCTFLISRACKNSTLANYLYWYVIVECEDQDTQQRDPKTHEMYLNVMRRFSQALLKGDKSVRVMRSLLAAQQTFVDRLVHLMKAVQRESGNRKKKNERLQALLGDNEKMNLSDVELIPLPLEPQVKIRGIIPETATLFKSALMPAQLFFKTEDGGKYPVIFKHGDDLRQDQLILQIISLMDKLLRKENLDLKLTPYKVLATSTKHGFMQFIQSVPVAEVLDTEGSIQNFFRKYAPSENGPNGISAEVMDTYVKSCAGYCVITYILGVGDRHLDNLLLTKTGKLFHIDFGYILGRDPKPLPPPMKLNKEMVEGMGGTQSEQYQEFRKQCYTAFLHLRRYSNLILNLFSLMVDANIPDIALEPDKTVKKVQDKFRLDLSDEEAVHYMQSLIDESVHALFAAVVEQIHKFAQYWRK
Sequence of MARK2 (Q7KZI7 whole entry): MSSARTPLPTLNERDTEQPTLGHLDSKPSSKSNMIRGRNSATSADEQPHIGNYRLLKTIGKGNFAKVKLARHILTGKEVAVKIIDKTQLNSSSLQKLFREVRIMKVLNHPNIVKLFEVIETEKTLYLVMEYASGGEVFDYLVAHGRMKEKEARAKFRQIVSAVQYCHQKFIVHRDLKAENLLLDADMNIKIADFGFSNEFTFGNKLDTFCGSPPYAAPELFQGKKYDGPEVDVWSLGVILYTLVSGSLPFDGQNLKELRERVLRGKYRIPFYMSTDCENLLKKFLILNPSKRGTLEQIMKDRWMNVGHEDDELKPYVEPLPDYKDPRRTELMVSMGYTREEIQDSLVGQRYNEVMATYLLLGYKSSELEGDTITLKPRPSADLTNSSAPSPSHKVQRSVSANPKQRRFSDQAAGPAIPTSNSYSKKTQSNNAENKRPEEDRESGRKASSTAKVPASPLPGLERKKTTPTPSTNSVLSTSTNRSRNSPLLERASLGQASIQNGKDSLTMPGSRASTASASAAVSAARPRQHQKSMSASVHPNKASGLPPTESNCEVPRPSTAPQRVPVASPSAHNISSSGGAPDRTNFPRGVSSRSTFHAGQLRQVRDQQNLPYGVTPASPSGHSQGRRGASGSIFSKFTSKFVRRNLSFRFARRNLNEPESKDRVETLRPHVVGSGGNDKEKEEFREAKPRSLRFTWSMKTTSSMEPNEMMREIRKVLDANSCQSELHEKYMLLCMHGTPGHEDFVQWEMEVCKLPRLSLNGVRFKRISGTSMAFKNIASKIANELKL
Sequence of MAP3K1 (Q13233 whole entry): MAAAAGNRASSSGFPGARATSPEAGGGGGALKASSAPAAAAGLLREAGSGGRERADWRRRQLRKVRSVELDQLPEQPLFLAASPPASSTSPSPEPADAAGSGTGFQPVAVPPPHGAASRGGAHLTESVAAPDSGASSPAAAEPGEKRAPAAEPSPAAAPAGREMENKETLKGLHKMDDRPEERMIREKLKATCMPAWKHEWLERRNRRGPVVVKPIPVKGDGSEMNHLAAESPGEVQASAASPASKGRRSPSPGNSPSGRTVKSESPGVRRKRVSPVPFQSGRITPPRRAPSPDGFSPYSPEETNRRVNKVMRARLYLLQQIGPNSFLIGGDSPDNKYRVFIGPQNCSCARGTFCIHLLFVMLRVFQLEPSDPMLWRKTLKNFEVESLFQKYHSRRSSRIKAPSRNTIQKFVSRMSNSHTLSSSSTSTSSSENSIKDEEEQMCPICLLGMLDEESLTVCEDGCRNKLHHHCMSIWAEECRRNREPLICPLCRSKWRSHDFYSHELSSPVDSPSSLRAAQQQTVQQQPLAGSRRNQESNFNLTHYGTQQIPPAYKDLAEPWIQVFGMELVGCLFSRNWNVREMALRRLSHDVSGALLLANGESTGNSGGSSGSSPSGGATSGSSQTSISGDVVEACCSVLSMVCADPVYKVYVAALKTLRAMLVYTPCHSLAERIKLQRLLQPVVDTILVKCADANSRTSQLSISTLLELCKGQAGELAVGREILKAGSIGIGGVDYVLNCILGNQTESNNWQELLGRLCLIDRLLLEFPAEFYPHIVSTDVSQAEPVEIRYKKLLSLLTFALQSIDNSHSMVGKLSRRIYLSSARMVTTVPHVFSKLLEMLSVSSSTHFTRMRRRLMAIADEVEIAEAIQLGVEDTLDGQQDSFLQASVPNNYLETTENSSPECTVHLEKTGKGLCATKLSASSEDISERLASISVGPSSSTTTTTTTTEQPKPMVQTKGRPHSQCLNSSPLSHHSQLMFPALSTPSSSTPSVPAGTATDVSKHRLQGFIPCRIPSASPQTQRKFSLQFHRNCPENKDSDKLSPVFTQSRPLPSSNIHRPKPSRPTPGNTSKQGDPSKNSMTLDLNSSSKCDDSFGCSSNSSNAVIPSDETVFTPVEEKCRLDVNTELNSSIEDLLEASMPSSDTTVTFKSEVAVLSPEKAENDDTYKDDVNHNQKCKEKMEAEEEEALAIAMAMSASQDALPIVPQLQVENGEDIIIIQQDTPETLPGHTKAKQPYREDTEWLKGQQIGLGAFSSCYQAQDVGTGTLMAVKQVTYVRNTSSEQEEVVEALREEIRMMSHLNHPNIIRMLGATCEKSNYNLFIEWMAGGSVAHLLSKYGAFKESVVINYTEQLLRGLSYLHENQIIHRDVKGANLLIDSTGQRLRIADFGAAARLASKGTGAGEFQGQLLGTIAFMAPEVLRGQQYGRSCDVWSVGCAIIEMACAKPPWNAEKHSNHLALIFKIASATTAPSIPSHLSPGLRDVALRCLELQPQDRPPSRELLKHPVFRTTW
Sequence of SRC (P12931 whole entry): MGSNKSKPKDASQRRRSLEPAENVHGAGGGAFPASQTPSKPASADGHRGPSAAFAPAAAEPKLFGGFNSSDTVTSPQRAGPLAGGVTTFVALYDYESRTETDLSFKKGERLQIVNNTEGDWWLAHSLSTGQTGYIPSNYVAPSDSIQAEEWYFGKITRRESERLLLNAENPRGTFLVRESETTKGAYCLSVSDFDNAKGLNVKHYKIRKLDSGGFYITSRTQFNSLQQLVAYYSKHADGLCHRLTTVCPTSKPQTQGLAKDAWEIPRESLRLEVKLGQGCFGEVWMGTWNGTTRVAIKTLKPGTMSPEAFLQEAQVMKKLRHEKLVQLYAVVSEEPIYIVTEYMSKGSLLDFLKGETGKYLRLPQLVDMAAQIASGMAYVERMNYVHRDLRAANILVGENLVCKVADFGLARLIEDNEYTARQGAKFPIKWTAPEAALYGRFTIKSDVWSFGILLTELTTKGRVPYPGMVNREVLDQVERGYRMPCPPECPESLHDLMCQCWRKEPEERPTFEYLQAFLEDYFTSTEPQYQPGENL
Sequence of LATS1 (O95835 whole entry): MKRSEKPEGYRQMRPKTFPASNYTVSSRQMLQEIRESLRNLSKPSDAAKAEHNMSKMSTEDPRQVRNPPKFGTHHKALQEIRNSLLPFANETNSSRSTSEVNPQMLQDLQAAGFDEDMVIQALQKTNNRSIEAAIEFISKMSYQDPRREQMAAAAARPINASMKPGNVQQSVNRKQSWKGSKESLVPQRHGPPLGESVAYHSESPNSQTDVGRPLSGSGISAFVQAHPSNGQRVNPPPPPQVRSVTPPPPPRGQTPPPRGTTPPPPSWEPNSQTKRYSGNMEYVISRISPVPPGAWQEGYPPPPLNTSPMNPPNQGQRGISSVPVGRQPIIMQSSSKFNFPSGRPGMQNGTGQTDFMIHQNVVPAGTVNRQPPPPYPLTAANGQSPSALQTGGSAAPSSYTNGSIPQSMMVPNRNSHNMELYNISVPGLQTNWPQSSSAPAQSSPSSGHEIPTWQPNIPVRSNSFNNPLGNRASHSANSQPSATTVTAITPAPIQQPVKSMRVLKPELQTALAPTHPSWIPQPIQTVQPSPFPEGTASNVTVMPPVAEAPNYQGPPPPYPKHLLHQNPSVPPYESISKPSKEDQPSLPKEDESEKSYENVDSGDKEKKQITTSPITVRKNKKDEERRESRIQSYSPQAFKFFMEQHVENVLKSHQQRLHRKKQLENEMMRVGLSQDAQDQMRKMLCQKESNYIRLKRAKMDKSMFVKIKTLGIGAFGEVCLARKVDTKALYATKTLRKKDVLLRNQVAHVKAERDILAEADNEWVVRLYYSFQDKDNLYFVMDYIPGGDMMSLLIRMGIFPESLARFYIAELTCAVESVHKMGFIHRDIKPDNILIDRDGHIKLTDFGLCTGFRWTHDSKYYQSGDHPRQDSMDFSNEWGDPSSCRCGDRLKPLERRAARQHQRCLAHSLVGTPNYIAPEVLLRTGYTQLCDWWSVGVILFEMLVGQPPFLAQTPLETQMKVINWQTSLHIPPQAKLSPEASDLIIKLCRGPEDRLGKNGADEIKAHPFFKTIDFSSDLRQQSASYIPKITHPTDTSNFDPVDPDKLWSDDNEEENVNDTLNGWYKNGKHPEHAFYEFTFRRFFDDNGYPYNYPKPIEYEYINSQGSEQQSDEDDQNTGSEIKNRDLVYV

## Cc1cnc2nc1Nc1cccc(c1)COCc1cc(ccc1OCCN1CCCC1)N2 [Compound 1]
LATS1
  remaining binding at 0.1 µM: 100%
VRK2
  remaining binding at 0.1 µM: 97%
[1]
  remaining binding at 0.1 µM: 51%
EPHA1
  remaining binding at 0.1 µM: 91%
CDK9
  remaining binding at 0.1 µM: 99%
MAP3K1
  remaining binding at 0.1 µM: 79%
CSNK2A2
  remaining binding at 0.1 µM: 62%
EGFR
  remaining binding at 0.1 µM: 81%
EIF2AK1
  remaining binding at 0.1 µM: 76%
CLK4
  remaining binding at 0.1 µM: 94%
CLK2
  remaining binding at 0.1 µM: 81%
SgK110
  remaining binding at 0.1 µM: 65%
PIK3CG
  remaining binding at 0.1 µM: 69%
PKN2
  remaining binding at 0.1 µM: 100%
SYK
  remaining binding at 0.1 µM: 99%
SRC
  remaining binding at 0.1 µM: 75%
CAMK2B
  remaining binding at 0.1 µM: 94%
MARK2
  remaining binding at 0.1 µM: 89%
AMPK-alpha1
  remaining binding at 0.1 µM: 100%
ZAK
  remaining binding at 0.1 µM: 100%
KIT(L576P)
  remaining binding at 0.1 µM: 14%
RET
  remaining binding at 0.1 µM: 96%
CSNK1A1L
  remaining binding at 0.1 µM: 61%
ICK
  remaining binding at 0.1 µM: 80%
VPS34
  remaining binding at 0.1 µM: 27%

Source: paper PMC10382584, “Macrocyclization of linear molecules by deep learning to facilitate macrocyclic drug candidates discovery” (Nature Communications, 2023)
